This passage reports IC50 results from patent publication US7601716B2, “Pyridopyrazines and derivatives thereof as ALK and c-Met inhibitors” (Cephalon, Inc., priority 2006, dated 2009).

pIC50: −log10 of the molar value.

A word on the pIC50: it is the IC50 on a negative log10 scale, so that one unit is a factor of ten.

baculovirus-expressed ALK, sequence (Q9UM73 19-1620): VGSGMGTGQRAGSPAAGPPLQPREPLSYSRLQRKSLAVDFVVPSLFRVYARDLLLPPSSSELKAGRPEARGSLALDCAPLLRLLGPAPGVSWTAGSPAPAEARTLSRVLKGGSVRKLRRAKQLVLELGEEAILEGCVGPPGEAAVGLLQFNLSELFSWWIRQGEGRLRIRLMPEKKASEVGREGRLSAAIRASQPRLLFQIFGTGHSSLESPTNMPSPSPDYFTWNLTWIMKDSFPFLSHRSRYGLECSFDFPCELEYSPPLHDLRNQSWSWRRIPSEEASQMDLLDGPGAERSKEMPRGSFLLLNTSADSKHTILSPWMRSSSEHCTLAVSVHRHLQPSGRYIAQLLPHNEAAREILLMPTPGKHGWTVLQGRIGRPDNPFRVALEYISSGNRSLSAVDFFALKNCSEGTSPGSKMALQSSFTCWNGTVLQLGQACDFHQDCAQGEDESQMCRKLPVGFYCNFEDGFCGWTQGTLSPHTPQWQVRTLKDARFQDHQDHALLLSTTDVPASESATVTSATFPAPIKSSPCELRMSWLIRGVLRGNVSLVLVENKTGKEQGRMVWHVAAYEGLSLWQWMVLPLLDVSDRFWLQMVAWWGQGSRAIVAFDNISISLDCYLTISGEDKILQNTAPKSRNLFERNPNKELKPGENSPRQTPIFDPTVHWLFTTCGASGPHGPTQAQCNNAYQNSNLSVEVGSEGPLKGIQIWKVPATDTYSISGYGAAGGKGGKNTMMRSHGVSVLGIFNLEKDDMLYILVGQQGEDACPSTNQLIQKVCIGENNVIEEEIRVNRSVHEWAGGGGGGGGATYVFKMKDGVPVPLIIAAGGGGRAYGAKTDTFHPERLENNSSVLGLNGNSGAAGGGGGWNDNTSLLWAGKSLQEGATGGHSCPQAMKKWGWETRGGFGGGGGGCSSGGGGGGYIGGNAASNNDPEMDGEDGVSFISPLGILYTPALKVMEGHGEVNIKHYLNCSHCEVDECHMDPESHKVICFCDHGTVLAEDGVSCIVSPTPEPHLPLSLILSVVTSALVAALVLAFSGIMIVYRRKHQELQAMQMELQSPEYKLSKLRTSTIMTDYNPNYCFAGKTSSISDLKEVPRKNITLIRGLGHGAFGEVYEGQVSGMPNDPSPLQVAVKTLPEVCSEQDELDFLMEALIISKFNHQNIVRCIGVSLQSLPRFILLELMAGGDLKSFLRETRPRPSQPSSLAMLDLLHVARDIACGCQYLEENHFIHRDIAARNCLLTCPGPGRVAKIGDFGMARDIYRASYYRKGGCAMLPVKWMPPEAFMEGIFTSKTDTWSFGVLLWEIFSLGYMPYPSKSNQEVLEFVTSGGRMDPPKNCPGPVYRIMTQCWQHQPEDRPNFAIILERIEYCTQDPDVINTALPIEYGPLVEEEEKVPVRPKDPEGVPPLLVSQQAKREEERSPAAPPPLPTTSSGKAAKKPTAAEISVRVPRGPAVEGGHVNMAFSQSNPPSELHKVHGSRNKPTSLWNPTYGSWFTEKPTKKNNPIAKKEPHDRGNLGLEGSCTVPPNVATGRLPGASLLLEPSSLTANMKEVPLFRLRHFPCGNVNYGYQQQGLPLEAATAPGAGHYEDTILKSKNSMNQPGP

The assay concerns the target baculovirus-expressed ALK (Homo sapiens, UniProt Q9UM73). Kind of assay: ALK Kinase Assay (ELISA/TRF, PLC-γ substrate). Also: 1 µM ATP (Km level). Format: biochemical. Particulars: read-out: ALK Kinase Inhibition (IC50). The method, then: Example compounds were tested for their ability to inhibit the kinase activity of baculovirus-expressed ALK using a modification of the ELISA protocol reported for trkA in Angeles, T. S. et al., Anal. Biochem. 1996, 236, 49-55, which is incorporated herein by reference in its entirety. Phosphorylation of the substrate, phospholipase C-gamma (PLC-γ) generated as a fusion protein with glutathione S-transferase (GST) as reported in Rotin, D. et al., EMBO J. 1992, 11, 559-567, which is incorporated herein by reference in its entirety, was detected with a europium-labeled anti-phosphotyrosine antibody and measured by time-resolved fluorescence (TRF). Briefly, each 96-well plate was coated with 100 μL/well of 10 μg/mL substrate (phospholipase C-γ) in Tris-buffered saline (TBS). […] The reaction was initiated by adding enzyme (30 ng/ml ALK) and was allowed to proceed at 37° C. for 15 minutes. Detection of the phosphorylated product was performed by adding 100 μl/well of Eu-N1 labeled PT66 antibody (Perkin Elmer # AD0041). Incubation at 37° C. then proceeded for one (1) hour, followed by addition of 100 μL enhancement solution (Wallac #1244-105). The plate was gently agitated and after thirty minutes, the fluorescence of the resulting solution was measured using the EnVision 2100 (or 2102) multilabel plate reader (Perkin Elmer).
Data analysis was performed using ActivityBase (IDBS, Guilford, UK). IC50 values were calculated by plotting percent inhibition versus log10 of the concentration of compound and fitting to the nonlinear regression sigmoidal dose-response (variable slope) equation in XLFit (IDBS, Guilford, UK).
For orientation: An ELISA detects its analyte on a solid surface through an enzyme-linked reagent.
For the compound `O=C(c1cccc(-c2cnc3c(c2)N(Cc2cc(Cl)ccc2C(F)(F)F)CCN3)c1)N1CCC(c2ccccc2)CC1` [Example 313, (3-{1-[5-Chloro-2-(trifluoromethyl)benzyl]-1,2,3,4-tetrahydropyrido[2,3-b]pyrazin-7-yl}phenyl)-(4-phenylpiperidin-1-yl)methanone], the pIC50 was 6.00 to 7.00.
In the case of `O=C(c1cccc(-c2cnc3c(c2)N(Cc2cc(Cl)ccc2C(F)(F)F)CCN3)c1)N1CCN(CCc2ccccn2)CC1` [Example 330, (3-{1-[5-Chloro-2-(trifluoromethyl)benzyl]-1,2,3,4-tetrahydropyrido[2,3-b]pyrazin-7-yl}phenyl)-[4-(2-pyridin-2-yl-ethyl)piperazin-1-yl]methanone] it was 6.00 to 7.00; in that of `CC(C)NC(=O)CN1CCN(C(=O)c2cccc(-c3cnc4c(c3)N(Cc3cc(Cl)ccc3C(F)(F)F)CCN4)c2)CC1` [Example 336, 2-[4-(3-{1-[5-Chloro-2-(trifluoromethyl)benzyl]-1,2,3,4-tetrahydropyrido[2,3-b]pyrazin-7-yl}benzoyl)piperazin-1-yl]-N-isopropylacetamide], 6.00 to 7.00.
Turning to `O=C(NCCOc1ccccc1)c1ccc(-c2cnc3c(c2)N(Cc2cc(Cl)ccc2C(F)(F)F)CCN3)cc1` [Example 420, 4-{1-[5-Chloro-2-(trifluoromethyl)benzyl]-1,2,3,4-tetrahydropyrido[2,3-b]pyrazin-7-yl}-N-(2-phenoxyethyl)benzamide], the pIC50 is 6.00 to 7.00.
As for `Cc1cc(N2CCN(C(=O)c3ccc(-c4cnc5c(c4)N(Cc4cc(Cl)ccc4C(F)(F)F)CCN5)cc3)CC2)c2ccccc2n1` [Example 403, (4-{1-[5-Chloro-2-(trifluoromethyl)benzyl]-1,2,3,4-tetrahydropyrido[2,3-b]pyrazin-7-yl}phenyl)-[4-(2-methylquinolin-4-yl)piperazin-1-yl]methanone], the pIC50 is greater than 7.00.
Consider `NS(=O)(=O)c1ccc(CCNC(=O)c2ccc(-c3cnc4c(c3)N(Cc3cc(Cl)ccc3C(F)(F)F)CCN4)cc2)cc1` [Example 405, 4-{1-[5-Chloro-2-(trifluoromethyl)benzyl]-1,2,3,4-tetrahydropyrido[2,3-b]pyrazin-7-yl}-N-[2-(4-sulfamoylphenyl)ethyl]benzamide], for which the pIC50 is 6.00 to 7.00.
`O=C(c1cccc(-c2cnc3c(c2)N(Cc2cc(Cl)ccc2C(F)(F)F)CCN3)c1)N1CCN(C(c2ccccc2)c2ccccc2)CC1` [Example 315, (4-Benzhydrylpiperazin-1-yl)-(3-{1-[5-Chloro-2-(trifluoromethyl)benzyl]-1,2,3,4-tetrahydropyrido[2,3-b]pyrazin-7-yl}phenyl)methanone]: the pIC50 is 5.00 to 6.00.
With `O=C(c1cccc(-c2cnc3c(c2)N(Cc2cc(Cl)ccc2C(F)(F)F)CCN3)c1)N1CCN(Cc2ccc(Cl)cc2)CC1` [Example 321, [4-(4-Chlorobenzyl)piperazin-1-yl]-(3-{1-[5-Chloro-2-(trifluoromethyl)benzyl]-1,2,3,4-tetrahydropyrido[2,3-b]pyrazin-7-yl}phenyl)methanone], the pIC50 is 6.00 to 7.00.
In the case of `O=C(NCc1cccc2ccccc12)c1cccc(-c2cnc3c(c2)N(Cc2cc(Cl)ccc2C(F)(F)F)CCN3)c1` [Example 342, 3-{1-[5-Chloro-2-(trifluoromethyl)benzyl]-1,2,3,4-tetrahydropyrido[2,3-b]pyrazin-7-yl}-N-naphthalen-1-ylmethylbenzamide] it was 6.00 to 7.00; in that of `O=C(c1ccc(-c2cnc3c(c2)N(Cc2cc(Cl)ccc2C(F)(F)F)CCN3)cc1)N1CCC(O)(c2ccc(Cl)cc2)CC1` [Example 371, [4-(4-Chlorophenyl)-4-hydroxypiperidin-1-yl]-(4-{1-[5-chloro-2-(trifluoromethyl)benzyl]-1,2,3,4-tetrahydropyrido[2,3-b]pyrazin-7-yl}phenyl)methanone], 6.00 to 7.00.
